Results taken from US20160044917A1, “LOW ENVIRONMENTAL IMPACT PESTICIDE MADE FROM "GRAS" INGREDIENTS FOR USE AGAINST COQUI FROGS AND OTHER SPECIES” (priority 2015, published 2016).
Like-named read-outs stand apart in the source and are kept apart here.

Columns and labels:
frogs = experiment: Frog killing time with different concentrations; assay type: in vivo; settings: concentrations from about 5% to about 10%
Method: Additionally, this formulation killed 10 out of 10 frogs within about 15 minutes. More over, concentrations using proprionic acid ranging from about 5% to about 10% were lethal to the frogs in the test group.

human skin = experiment: Contact of acid solution with human skin or hand; assay type: in vivo; settings: solution with a pH of less than 0.5
Method: As discussed above, AGIIS has relatively less dehydrating properties (such as charring sucrose) as compared to the saturated solution of CaSO4 in the same concentration of H2SO4. […] AGIIS has low volatility at room temperature and pressure.
In view of the need to find new phytogenic friendly alternatives for controlling the spread of Coqui frogs, a commercially available food sanitation product (i.e. Acidic Calcium Sulfate (“ACS”) was evaluated for inclusion in the current inventory of chemicals that can be applied as sprays. ACS and functional equivalents thereof are made from ingredients that are generally regarded as safe (“GRAS”), and is approved for use in food by the FDA and USDA. Although not wanting to be bound by theory, the efficacy of this product stems from its very unique characteristic of being able to donate a very high activity of hydrogen ions (low pH), while at the same time, having very low oxidative effects on plants and human skin. For example, a five (5) normal concentration of ACS having a pH of approximately zero may be held in the human hand without harm to the person holding the acid. In contrast, when very small amounts are applied to the skin of Coqui frogs it is quickly absorbed and respiration is immediately impaired with lethal results. […]

common plants = settings: citric acid 25%, three days after treatment, cited from earlier work

CCC(=O)O [propionic acid]
lethality to the frogs in the test group (frogs): lethal

O=S(=O)(O)O [sulfuric acid]
effect on hand put into the solution (human skin): an irritation would occur

O=C(O)CC(O)(CC(=O)O)C(=O)O [citric acid]
phytotoxicity rating (common plants; bromeliad): moderate | phytotoxicity rating (common plants; calathea): severe | phytotoxicity rating (common plants; dendrobium orchid): moderate | phytotoxicity rating (common plants; eggplants): severe | phytotoxicity rating (common plants; guava plant): moderate | phytotoxicity rating (common plants; leatherleaf fern): moderate | phytotoxicity rating (common plants; passion fruit): slight | phytotoxicity rating (common plants; payaya): slight | phytotoxicity rating (common plants; streptocarpus): severe
